Data from ChEMBL document CHEMBL1201862, “PubChem BioAssay data set” (2004).
The source made the active and inactive calls.

How the values were obtained:
Cytochrome P450 3A4 = Cytochrome P450 3A4 (Homo sapiens, UniProt P08684);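 further: CYP3A4 tested as one member of a cytochrome P450 panel screen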
Cytochrome P450 1A2 = biological target: T1, Cytochrome P450 1A2 (Homo sapiens, UniProt P05177);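 further: PubChem cytochrome P450 panel assay, CYP1A2 panel member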
T1 sequence (P05177 whole entry): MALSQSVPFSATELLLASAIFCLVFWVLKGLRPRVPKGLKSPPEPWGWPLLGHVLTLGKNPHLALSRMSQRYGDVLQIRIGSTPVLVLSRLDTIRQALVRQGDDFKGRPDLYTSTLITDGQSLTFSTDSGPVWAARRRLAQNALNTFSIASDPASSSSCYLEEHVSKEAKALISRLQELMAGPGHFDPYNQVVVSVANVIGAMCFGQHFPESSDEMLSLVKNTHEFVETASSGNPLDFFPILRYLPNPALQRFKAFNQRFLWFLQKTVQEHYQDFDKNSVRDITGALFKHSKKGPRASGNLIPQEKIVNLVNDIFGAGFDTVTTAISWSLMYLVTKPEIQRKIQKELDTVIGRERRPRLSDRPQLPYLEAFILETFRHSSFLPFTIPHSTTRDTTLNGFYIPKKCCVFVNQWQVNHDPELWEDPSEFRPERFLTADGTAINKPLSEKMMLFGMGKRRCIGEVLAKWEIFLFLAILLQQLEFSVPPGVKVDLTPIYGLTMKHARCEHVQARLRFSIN

Cytochrome P450 2C9 = Cytochrome P450 2C9 (Homo sapiens, UniProt P11712)
Cytochrome P450 2C19 = Cytochrome P450 2C19 (Homo sapiens, UniProt P33261); assay: Cytochrome panel assay with activity outcomes. Panel member name: p450-cyp2c19 Compounds with AC50 equal or less than 10 uM are considered active; assay type: functional
Escherichia coli [1] = assay: microbe, parasite or virus in culture
[2] = biological target: T2, Corticotropin-releasing factor receptor 2/Corticotropin-releasing factor-binding protein (Homo sapiens, UniProt P24387+Q13324); assay: activators of CRF receptor 2 with binding protein – uHTS hits, confirmation (AID 602473); assay type: functional; settings: read-out: EC50_Mean
T2 sequence (Q13324 whole entry): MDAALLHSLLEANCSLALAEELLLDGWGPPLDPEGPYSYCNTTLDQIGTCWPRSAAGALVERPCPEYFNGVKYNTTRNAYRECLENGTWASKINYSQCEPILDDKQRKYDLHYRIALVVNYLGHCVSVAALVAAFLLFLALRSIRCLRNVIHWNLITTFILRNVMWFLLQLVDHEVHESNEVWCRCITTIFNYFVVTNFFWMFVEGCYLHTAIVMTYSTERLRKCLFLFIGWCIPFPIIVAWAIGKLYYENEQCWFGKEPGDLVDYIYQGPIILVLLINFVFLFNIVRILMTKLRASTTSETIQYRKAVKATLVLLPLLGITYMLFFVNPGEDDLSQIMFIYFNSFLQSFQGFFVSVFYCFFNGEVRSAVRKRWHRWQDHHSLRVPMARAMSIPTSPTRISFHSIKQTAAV
T2 sequence (P24387 whole entry): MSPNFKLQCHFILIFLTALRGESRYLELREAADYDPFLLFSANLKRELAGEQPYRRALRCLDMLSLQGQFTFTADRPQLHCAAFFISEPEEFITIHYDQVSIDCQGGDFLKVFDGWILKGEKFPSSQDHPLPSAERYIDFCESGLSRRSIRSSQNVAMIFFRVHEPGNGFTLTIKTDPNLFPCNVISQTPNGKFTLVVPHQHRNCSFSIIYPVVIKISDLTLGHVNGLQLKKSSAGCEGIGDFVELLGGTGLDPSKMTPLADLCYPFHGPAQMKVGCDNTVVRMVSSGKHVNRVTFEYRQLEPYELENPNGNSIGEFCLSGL

[3] = biological target: T3, Short transient receptor potential channel 4 (Mus musculus, UniProt Q9QUQ5); assay: calcium entry via TRPC4 opening agents – cell-based, HEK293 TRPC4/mu-opioid, Fluo-4 calcium, dose response (AID 434937); assay type: functional
T3 sequence (Q9QUQ5 whole entry): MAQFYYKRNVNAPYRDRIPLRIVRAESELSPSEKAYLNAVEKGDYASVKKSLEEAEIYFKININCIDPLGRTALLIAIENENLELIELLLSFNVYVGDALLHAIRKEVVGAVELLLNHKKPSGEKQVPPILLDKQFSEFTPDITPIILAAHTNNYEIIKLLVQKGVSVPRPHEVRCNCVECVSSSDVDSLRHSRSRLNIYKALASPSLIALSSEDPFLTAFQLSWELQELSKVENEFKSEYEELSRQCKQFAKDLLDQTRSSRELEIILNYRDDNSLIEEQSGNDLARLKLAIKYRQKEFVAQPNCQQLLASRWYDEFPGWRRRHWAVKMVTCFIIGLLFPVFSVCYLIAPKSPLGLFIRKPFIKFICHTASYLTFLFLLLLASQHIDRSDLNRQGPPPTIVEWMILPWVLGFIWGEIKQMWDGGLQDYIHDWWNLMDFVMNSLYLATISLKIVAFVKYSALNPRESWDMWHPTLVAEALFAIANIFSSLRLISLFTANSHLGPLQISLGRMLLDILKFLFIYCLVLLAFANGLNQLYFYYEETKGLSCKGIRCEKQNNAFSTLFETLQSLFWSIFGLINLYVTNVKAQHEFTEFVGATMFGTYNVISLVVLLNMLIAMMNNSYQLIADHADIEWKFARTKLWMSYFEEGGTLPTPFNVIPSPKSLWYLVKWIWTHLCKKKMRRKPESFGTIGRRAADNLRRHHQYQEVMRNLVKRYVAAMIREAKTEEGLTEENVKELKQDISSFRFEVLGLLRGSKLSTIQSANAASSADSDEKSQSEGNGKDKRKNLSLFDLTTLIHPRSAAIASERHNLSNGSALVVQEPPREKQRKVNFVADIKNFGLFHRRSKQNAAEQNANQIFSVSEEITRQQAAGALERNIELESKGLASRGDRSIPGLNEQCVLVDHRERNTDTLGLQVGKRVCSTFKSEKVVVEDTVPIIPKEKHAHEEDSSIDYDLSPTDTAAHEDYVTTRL

Fatty acid synthase [4] = biological target: T4, Fatty acid synthase (Homo sapiens, UniProt P49327); assay: inhibition of human FAS-TE enzyme activity – biochemical, endpoint fluorescence intensity, uHTS hits, dose response (AID 624327); assay type: functional;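 further: fluorescence from hydrolysis of an O-methyl fluorescein acyl ester substrate by the enzyme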
[5] = biological target: Induced myeloid leukemia cell differentiation protein Mcl-1 (Homo sapiens, UniProt Q07820); assay type: functional
Large T antigen = Large T antigen (Simian virus 40, UniProt P03070); assay type: functional, Betapolyomavirus macacae;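 further: Confirmatory-stage PubChem screen for compounds that inhibit SV40 T antigen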
Genome polyprotein = Genome polyprotein (dengue virus type 2, UniProt P29990); assay: flavivirus cap methylation enzyme inhibition – biochemical, confirmation dose response, primary screen (AID 588689); assay type: functional
Fatty acid synthase [6] = biological target: T4, Fatty acid synthase; assay: inhibition of human FAS-TE enzyme activity – biochemical, kinetic fluorescence intensity, dose response (AID 624326); assay type: functional;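 further: rate of fluorescence rise from hydrolysis of a fluorogenic O-methyl fluorescein ester substrate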
[7] = MIN6 cell viability loss – mouse insulinoma, cytotoxicity control, dose response (AID 2122); assay type: functional;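 further: confirmatory high-throughput counterscreen run to flag cytotoxic compounds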
[8] = decrease of insulin promoter-GFP reporter – imaging, high-content screening, mouse beta cells (AID 1628); assay type: functional; settings: MIN6
[9] = NIH-3T3 fibroblast cytotoxicity, dose response, cytotoxicity control, cell-based, fluorescence, Alamar Blue, secondary assay (AID 2327); assay type: functional;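 further: NIH-3T3 mouse fibroblasts cultured with fluconazole at 8 µg/mL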
Escherichia coli [10] = assay: microbe, parasite or virus in culture; remark: listed apart in the source
[11] = biological target: T5, Heat shock factor protein 1 (Mus musculus, UniProt P38532); assay: enhancement of HSF1-driven luciferase signal – cell-based, NIH3T3, luminescence, dose retest, confirmation (AID 435004); assay type: functional;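 further: stress induced by proteasome inhibitor MG132 added 30 min after compound; luciferase reporter driven by HSF1 response element in NIH3T3 cells; actives raise luminescence as potentiators of the MG132 stress response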
T5 sequence (P38532 whole entry): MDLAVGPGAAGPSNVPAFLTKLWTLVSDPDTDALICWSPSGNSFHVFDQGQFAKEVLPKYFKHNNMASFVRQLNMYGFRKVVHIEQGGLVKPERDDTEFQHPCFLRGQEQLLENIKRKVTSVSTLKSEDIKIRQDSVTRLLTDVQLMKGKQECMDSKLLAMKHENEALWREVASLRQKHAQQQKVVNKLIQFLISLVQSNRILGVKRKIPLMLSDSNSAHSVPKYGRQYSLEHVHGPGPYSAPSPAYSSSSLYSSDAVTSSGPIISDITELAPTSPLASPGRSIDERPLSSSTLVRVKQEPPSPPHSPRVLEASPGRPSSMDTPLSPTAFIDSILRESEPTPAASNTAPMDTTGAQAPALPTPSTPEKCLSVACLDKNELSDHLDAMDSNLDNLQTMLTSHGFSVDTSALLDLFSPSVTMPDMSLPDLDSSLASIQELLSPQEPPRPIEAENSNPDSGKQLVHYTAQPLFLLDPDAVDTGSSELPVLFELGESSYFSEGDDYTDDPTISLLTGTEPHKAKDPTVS

Sequence of Cytochrome P450 2C19 (P33261 whole entry): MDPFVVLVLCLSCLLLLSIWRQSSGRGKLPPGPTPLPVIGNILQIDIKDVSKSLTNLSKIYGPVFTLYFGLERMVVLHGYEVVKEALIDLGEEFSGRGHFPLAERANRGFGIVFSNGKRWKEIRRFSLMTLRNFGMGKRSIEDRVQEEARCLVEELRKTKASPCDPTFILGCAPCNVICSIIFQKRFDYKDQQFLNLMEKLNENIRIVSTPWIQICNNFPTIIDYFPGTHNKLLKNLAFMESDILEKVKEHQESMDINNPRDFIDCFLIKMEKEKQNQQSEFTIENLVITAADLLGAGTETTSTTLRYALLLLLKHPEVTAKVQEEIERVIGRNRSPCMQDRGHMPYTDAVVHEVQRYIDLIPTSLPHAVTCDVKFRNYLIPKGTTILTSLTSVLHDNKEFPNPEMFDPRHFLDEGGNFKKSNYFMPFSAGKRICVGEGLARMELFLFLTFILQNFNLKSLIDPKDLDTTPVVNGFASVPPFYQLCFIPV
Sequence of Cytochrome P450 2C9 (P11712 whole entry): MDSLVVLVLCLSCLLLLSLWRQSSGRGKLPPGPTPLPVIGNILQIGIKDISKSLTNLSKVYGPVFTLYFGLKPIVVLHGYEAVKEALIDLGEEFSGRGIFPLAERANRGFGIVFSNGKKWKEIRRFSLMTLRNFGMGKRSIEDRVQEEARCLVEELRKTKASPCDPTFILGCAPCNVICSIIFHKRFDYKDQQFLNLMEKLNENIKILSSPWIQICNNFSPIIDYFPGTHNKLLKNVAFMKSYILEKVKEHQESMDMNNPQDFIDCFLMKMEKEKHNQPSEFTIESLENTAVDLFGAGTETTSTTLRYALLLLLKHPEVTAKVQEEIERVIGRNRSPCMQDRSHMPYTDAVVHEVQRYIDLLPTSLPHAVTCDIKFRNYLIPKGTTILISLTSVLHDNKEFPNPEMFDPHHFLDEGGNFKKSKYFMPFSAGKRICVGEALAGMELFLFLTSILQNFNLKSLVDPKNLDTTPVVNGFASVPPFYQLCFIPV
T4 sequence (P49327 whole entry): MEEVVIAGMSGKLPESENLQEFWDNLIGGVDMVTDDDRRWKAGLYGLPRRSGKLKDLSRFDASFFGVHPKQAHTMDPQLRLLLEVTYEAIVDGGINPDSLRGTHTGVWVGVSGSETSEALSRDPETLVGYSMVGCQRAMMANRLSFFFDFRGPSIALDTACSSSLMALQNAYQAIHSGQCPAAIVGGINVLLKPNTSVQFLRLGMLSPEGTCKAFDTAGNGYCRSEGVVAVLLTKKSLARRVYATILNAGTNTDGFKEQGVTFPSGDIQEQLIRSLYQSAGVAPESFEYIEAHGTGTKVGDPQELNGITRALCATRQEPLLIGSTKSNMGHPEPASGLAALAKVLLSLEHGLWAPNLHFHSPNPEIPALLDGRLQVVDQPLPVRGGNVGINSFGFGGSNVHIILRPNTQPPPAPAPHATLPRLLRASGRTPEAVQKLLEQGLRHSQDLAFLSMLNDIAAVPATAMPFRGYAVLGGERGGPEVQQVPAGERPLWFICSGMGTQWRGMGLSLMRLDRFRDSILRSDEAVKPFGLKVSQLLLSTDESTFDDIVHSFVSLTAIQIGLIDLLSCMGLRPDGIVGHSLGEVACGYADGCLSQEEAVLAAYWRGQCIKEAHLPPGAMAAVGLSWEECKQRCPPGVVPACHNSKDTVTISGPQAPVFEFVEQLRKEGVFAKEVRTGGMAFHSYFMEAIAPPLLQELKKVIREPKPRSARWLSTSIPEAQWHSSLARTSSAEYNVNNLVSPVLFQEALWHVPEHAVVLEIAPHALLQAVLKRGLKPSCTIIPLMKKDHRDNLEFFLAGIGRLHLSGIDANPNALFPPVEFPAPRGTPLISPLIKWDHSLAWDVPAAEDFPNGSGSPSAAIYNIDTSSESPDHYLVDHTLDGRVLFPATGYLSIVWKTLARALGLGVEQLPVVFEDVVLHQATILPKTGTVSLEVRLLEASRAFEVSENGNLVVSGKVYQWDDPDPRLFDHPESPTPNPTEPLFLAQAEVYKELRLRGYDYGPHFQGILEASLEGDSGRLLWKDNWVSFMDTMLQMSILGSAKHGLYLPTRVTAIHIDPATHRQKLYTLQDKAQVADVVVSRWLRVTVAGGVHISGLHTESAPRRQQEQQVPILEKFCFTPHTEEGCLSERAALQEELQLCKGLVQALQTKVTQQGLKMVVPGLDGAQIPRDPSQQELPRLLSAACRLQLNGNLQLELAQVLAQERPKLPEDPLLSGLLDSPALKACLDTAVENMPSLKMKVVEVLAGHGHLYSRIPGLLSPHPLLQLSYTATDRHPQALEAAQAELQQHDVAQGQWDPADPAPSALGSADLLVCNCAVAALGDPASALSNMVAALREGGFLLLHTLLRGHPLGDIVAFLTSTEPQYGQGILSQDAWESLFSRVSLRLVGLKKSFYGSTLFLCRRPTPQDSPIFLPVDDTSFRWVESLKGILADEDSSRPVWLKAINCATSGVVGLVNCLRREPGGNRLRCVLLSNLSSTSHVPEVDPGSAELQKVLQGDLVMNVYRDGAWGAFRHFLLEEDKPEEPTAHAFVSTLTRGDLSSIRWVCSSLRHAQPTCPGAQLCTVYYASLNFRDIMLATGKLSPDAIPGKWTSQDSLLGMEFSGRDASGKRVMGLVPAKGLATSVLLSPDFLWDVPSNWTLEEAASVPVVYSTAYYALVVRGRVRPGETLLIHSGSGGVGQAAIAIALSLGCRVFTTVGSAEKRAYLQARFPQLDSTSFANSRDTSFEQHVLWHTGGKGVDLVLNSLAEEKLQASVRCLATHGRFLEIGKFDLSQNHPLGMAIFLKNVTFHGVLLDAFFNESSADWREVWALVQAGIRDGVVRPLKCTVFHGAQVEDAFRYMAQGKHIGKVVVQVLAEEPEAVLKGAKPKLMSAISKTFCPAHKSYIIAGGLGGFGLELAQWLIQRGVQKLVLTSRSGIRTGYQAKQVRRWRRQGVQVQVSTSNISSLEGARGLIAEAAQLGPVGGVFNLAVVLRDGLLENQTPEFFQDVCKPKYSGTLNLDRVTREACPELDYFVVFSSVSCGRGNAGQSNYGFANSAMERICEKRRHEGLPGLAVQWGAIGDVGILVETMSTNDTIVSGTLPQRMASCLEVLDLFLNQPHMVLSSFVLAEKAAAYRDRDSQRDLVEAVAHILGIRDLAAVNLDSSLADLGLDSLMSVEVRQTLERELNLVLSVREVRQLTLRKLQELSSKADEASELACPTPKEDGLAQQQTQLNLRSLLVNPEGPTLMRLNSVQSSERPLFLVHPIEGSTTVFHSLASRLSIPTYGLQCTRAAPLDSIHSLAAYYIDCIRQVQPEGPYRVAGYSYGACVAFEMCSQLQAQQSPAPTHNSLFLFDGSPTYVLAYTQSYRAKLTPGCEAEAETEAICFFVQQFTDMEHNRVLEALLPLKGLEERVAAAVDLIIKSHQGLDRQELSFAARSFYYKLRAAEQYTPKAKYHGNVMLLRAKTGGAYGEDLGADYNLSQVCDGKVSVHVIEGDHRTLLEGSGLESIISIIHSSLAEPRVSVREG
Sequence of Induced myeloid leukemia cell differentiation protein Mcl-1 (Q07820 whole entry): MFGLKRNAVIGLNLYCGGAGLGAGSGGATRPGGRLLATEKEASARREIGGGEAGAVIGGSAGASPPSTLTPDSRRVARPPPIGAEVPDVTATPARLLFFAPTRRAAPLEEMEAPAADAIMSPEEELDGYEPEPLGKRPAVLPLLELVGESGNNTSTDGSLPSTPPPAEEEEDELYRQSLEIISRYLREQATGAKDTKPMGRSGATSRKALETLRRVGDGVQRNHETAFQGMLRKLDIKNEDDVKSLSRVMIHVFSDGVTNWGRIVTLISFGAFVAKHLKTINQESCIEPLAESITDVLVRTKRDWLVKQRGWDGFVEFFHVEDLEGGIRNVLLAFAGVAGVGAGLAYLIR
Sequence of Large T antigen (P03070 whole entry): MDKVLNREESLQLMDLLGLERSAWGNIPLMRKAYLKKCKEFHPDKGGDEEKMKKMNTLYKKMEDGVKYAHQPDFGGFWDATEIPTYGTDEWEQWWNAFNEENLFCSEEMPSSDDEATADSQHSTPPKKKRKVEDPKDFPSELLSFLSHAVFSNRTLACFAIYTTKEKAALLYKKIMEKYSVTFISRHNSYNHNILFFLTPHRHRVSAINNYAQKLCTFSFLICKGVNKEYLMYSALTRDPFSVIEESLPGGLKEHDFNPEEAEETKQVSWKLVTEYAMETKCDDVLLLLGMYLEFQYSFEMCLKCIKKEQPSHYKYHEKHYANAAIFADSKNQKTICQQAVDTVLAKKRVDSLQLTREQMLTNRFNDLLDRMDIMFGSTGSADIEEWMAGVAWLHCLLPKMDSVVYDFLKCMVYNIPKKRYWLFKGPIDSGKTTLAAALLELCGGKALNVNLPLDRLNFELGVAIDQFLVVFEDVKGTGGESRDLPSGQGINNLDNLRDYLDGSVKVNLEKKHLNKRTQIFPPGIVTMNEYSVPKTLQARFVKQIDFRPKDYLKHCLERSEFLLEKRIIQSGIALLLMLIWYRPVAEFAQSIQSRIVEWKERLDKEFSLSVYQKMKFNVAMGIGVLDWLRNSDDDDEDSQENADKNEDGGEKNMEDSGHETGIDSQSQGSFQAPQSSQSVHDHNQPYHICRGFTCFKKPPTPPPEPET
Sequence of Cytochrome P450 3A4 (P08684 whole entry): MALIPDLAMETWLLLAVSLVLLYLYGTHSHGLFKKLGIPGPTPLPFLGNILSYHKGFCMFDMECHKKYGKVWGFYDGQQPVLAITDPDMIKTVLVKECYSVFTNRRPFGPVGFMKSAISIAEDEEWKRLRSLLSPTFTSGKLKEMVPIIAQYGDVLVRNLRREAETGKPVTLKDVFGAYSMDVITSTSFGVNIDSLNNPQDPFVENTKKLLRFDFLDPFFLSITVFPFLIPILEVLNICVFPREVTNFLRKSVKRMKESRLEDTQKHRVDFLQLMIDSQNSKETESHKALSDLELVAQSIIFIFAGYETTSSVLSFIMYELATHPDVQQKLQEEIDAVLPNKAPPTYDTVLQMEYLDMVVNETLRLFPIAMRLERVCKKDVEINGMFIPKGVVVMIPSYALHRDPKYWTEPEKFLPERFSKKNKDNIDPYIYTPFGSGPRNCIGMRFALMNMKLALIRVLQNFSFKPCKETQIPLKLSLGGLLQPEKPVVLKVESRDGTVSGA

Q: With `Cn1cccc1C(=O)N1CCC2(CC1)CN(c1cccc(-c3ccccc3)c1)C2` as the compound, how does the AC50 (Cytochrome P450 3A4) read?
A: inconclusive

Q: What about the AC50 (Cytochrome P450 1A2) of the same compound?
A: 25.1 µM (inconclusive)

Q: And the AC50 (Cytochrome P450 2C9)?
A: inconclusive

Q: And the AC50 (Cytochrome P450 2C19; read-out: AC50)?
A: 39.8 µM (inconclusive)

Q: For `O=C(N/N=C/c1cccc(C(F)(F)F)c1)C1CCN(c2ncc(C(F)(F)F)cc2Cl)CC1`, which AC50 (Cytochrome P450 2C9) is on record?
A: inconclusive

Q: What about the AC50 (Cytochrome P450 2C19) of the same compound?
A: inconclusive

Q: Which AC50 (Escherichia coli [1]) does the source give for `CO[C@H]1/C=C/O[C@@]2(C)Oc3c(C)c(O)c4c(O)c(c(/C=N/N5CCN(C)CC5)c(O)c4c3C2=O)NC(=O)/C(C)=C\C=C\[C@H](C)[C@H](O)[C@@H](C)[C@@H](O)[C@@H](C)[C@H](OC(C)=O)[C@@H]1C` [RIFAMPIN] here?
A: 32.3 µM (active)

Q: Which EC50 [2] does the source give for `CCN1C(=O)c2cccc3c(S(=O)(=O)Nc4ccccc4OC)ccc1c23` here?
A: 7.94 µM (active)

Q: And the EC50 [3]?
A: 5.96 µM (active)

Q: With `Cc1nc2ccc(NC(=O)c3cc([N+](=O)[O-])cc([N+](=O)[O-])c3Cl)cc2s1` as the compound, how does the IC50 (Fatty acid synthase [4]) read?
A: 2.23 µM (active)

Q: What about the IC50 [5] of the same compound?
A: 5.15 µM (active)

Q: And the IC50 (Large T antigen)?
A: 59.9 µM (active)

Q: What about the IC50 (Genome polyprotein) of the same compound?
A: 59.6 µM (active)

Q: What about the IC50 (Fatty acid synthase [6]) of the same compound?
A: 2.54 µM (active)

Q: Which results are given for `Clc1ccc(CN2CCN(c3ncnc4scc(-c5cccs5)c34)CC2)cc1`?
A: IC50 [7]: 2.12 µM (active); IC50 [8]: 2.39 µM (active)

Q: For `C[n+]1c(-c2ccccc2)cc(CCCCc2cc(-c3ccccc3)[n+](C)c(-c3ccccc3)c2)cc1-c1ccccc1.[O-][Cl+3]([O-])([O-])[O-].[O-][Cl+3]([O-])([O-])[O-]`, which EC50 [9] is on record?
A: > 160 µM (inactive)

Q: What about the IC50 [7] of the same compound?
A: 4.7 µM (active)

Q: What about the IC50 [8] of the same compound?
A: 2.72 µM (active)

Q: Which results are given for `COc1ccc(S(=O)(=O)N2CCCC2)c(Cl)c1Cl`?
A: AC50 (Escherichia coli [1]): 37.7 µM (active); AC50 (Escherichia coli [10]): 71.3 µM (active)

Q: Which EC50 [11] does the source give for `Cc1ccc([N+](=O)[O-])cc1/N=N/c1c(-c2ccc([N+](=O)[O-])cc2)[nH]n(C(N)=S)c1=O` here?
A: > 260 µM (inactive)

Q: What about the IC50 [5] of the same compound?
A: 1.18 µM (active)

Q: What does the source list for `C[C@H]1c2cccc(O)c2C(=O)C2=C(O)C3(O)C(O)=C(C(N)=O)C(=O)[C@@H](N(C)C)[C@@H]3[C@@H](O)[C@@H]21` (some centres undefined)?
A: AC50 (Escherichia coli [1]): 1.13 µM (active); AC50 (Escherichia coli [10]): 30 µM (active)

Q: Which results are given for `Cc1cc(C)n(-c2ccc(NC(=O)C3CCN(Cc4ccccn4)CC3)cc2)n1`?
A: AC50 (Escherichia coli [1]): 51.6 µM (active); AC50 (Escherichia coli [10]): 39.4 µM (active)

Q: Which AC50 (Cytochrome P450 2C9) does the source give for `O=C(OCCCN1CCCCC1)c1ccc(O)cc1` here?
A: inconclusive

Q: And the AC50 (Cytochrome P450 2C19)?
A: inconclusive
